{
  "source": "patent US20240189307A1",
  "about": "“METHODS OF STABILIZING THE NEURONAL PROTEOME AGAINST COLLAPSE AND PROTECTING VASCULAR CELLS” (ALBERT EINSTEIN COLLEGE OF MEDICINE, priority 2021, published 2024)",
  "key": {"[1]": {"test_system": "Tg mice (APPSwe; PS2N141I; TauP301L)", "experiment": "Triple transgenic (Tg, TauPS2APP) mouse model of Alzheimer's disease-related proteotoxicity, oral daily CA", "type": "in vivo", "excerpt": "FIG. 12. Chemical activation of CMA improves behavior and neuropathology in a mouse model of Alzheimer's disease-related proteotoxicity. (A) Schematic of regimen of CMA activator (CA) administration to TauPS2APP (Tg) mice. (B-D) Performance of Tg mice administered vehicle (Veh) or CMA activator (CA) in the novel object recognition test (B, left plot: % of time dedicated to the novel object; right plot: discrimination index), the elevated plus maze (C) and the forced swim test (D). (E) Clasping score in Tg mice +/− CA: time course of clasping score increase (left) and mean linear regression coefficient (right). (F) Performance of Tg mice +/− CA in horizontal grid test. (G-O) Immunostaining of immature amyloid plaques (MOAB2), mature amyloid depositions (6E10), β-sheet marker (Thioflavin S) and Threonine231-phosphorylated tau (pThr231 tau) in the dorsal hippocampus of Tg mice +/− CA. Montages of individual images from the scanning of whole brain slices are shown. Inset: Higher magnification of pThr231 tau staining. Scale bar: 200 μm. Quantification of images of montages of individual images from the scanning of whole brain slices of percentage of area positive and plaque size for MOAB2 (G, J), 6E10 (H, K) or Thioflavin S (I, L). Relationship between number of plaques and average plaque size for different markers of plaque maturity (ThS>6E10>MOAB2) […]. Quantification of percentage of area positive for pThr231 tau (N) and of the overlap between pThr231 tau staining and 6E10 staining (O). All quantifications (except clasping—E) were done at 12 months, in 4-6 mice per group. Data are mean±s.e.m. Comparisons were made using unpaired t-test (B-D, F, G-O), Two-way ANOVA test followed by Sidak's post-hoc analysis (E). *p<0.05, **p<0.005, ***p<0.0005.\nFIG. 13. Effect of chemical activation of CMA in a mouse model of Alzheimer's disease-related proteotoxicity. (A-D) Quantification of size of plaques positive for MOAB2 (t7=3.181, p=0.0155) (A), 6E10 (B) or Thioflavin S (ThS) (C) and of T231-phosphorylated tau pathology (t8=2.382, p=0.0444) (D) in brain cortex from Tg mice administered Veh or CA for 4 months. (E) Summary heatmap highlighting the extent of pathology reduction upon CMA activation in cortex and dorsal hippocampus. * highlights significant difference between Veh and CA administered Tg mice. (F) Immunoblot for S202/T205-phosphorylated (AT8) tau in the brain of Tg mice treated with Veh or CA. Representative immunoblot (left) and densitometric quantification (t8=2.425, p=0.0415) (right). Values were normalized to ponceau and are expressed as folds of Veh treated mice. (G) Number of GFAP-positive astrocytes per area unit (t8=4.058, p=0.0036). (H-I) Representative images of immunostaining of inflammation (microglial marker: Iba1—Green), amyloid pathology (MOAB2—Magenta) and nuclear staining with DAPI (blue) in the dorsal hippocampus of Tg mice administered Veh or CA. Montages of individual images of the dorsal hippocampus from the scanning of whole brain slices are shown. Quantification of number of Iba1-positive microglial cells per area unit (t8=2.041, p=0.0755) (left) and mean cell size (t8=2.079, p=0.0713) (right) (H) and colocalization coefficient between microglia (Iba1) and amyloid plaques (MOAB2) (I) (Mann Whitney U=6, p=0.2571). Mean±s.e.m. and individual values are shown. Comparisons were made using unpaired t-test analysis. *: p<0.05, **: p<0.005.\nMale wild-type mice (C57BL/6J) or transgenic for CaMKIIα-Cre (B6.Cg-Tg(Camk2α-cre)T29-1Stl/J, Jackson Laboratory), LAMP-2A^flox/flox (Schneider et al., 2014), Tau^P301L (line pR5), Tg (APP^Swe; PS2^N141I; Tau^P301L), PS19 (Tau^P301S) (Yoshiyama et al., 2007) and Atg7^f/f were used in the study. Conditional LAMP-2A deletion was generated by breeding LAMP-2A^flox/flox with the transgenic Cre mice of interest. […]"}, "[2]": {"experiment": "Pharmacokinetic analysis in mice brain after p.o. and i.v. administration", "type": "in vivo", "settings": "p.o. 10 mg/Kg and i.v. 1 mg/kg"}, "[3]": {"settings": "dorsal hippocampus, 30 mg/kg oral daily, 4 months"}, "[4]": {"settings": "hippocampus and cortex, 30 mg/kg oral daily, 4 months"}},
  "data": [
    {"molecule": "CC(=O)Nc1ccc(-c2cnc3cc(Cl)ccc3n2)cc1", "note": "[CA77.1]", "values": [
      {"measurement": "visual memory (novel object recognition test)", "setting": "[1]; 30 mg/kg oral daily for 4 months from 8 months of age", "result": "better visual memory"},
      {"measurement": "anxiety- and depression-like behaviors (elevated plus maze, forced swim test)", "setting": "[1]; 30 mg/kg oral daily, 4 months", "result": "decreased anxiety- and depression-like behaviors"},
      {"measurement": "clasping progression", "setting": "[1]; 30 mg/kg oral daily, 4 months", "result": "slower clasping progression"},
      {"measurement": "number of amyloid deposits", "setting": "[1]; 30 mg/kg oral daily, 4 months", "result": "lower number of deposits depending on the deposit maturity"},
      {"measurement": "performance in horizontal grid test", "setting": "[1]; 30 mg/kg oral daily, 4 months", "result": "increased performance in horizontal grid test"},
      {"measurement": "S202/T205-phosphorylated (AT8) tau by immunoblot", "setting": "[1]; brain, 30 mg/kg oral daily, 4 months", "result": "significant reduction of the mature phosphosite AT8"},
      {"measurement": "association of glial cells with amyloid plaque-like deposit", "setting": "[1]; [3]", "result": "less association of glial cells with amyloid plaque-like deposit"},
      {"measurement": "number of microglia and astrocytes", "setting": "[1]; [3]", "result": "lower number of microglia and astrocytes in the dorsal hippocampus"},
      {"measurement": "T231 phosphorylated Tau levels", "setting": "[1]; [4]", "result": "reduced levels of the early T231 phosphorylated Tau"},
      {"measurement": "area and size of amyloid plaques (MOAB2, 6E10, thioflavin S)", "setting": "[1]; [4]", "result": "reduced area and size of immature (MOAB2-positive) and mature (6E10 and thioflavin S-positive) amyloid plaques"},
      {"measurement": "brain penetrance and pharmacokinetics", "setting": "[2]", "result": "brain penetrance with favorable pharmacokinetics"}
    ]}
  ]
}
